Data published in the supplement of paper PMC11061612.

How the values were obtained:
[1] = compound: C1CC(C1)(C(=O)[O-])C(=O)[O-].N.N.[Pt+2] [Carboplatin]; details: max 10 µM
Outline: (§1)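 Cancer cell lines were dosed for 72 hours (final DMSO typically 0.2%) after 24 hours at 37°C and 5% CO2 in 1536-well plates containing 7.5 μl DMEM/F12 or RPMI with 10% FBS. Viability came from CellTiter-Glo 2.0 luminescence, scaled between blank-well and DMSO-well means, and dose responses were fitted to a two-parameter logistic curve with a non-linear mixed effects model. The single-agent IC50 was obtained from this fit.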

[2] = compound: C1CN(CCC1(C(=O)N[C@@H](CCO)C2=CC=C(C=C2)Cl)N)C3=NC=NC4=C3C=CN4 [AZD5363]; details: max 10 µM
Outline: as §1

[3] = compound: C=CCn1c(=O)c2cnc(Nc3ccc(N4CCN(C)CC4)cc3)nc2n1-c1cccc(C(C)(C)O)n1 [AZD1775]; details: max 3 µM
Outline: as §1

[4] = compound: CC(=O)Nc1cccc(-n2c(=O)n(C3CC3)c(=O)c3c(Nc4ccc(I)cc4F)n(C)c(=O)c(C)c32)c1 [Trametinib]; details: max 1 µM
Outline: as §1

[5] = compound: CC(=O)O[C@H]1C(=O)[C@@]2(C)[C@H]([C@H](OC(=O)c3ccccc3)[C@]3(O)C[C@H](OC(=O)[C@H](O)[C@@H](NC(=O)c4ccccc4)c4ccccc4)C(C)=C1C3(C)C)[C@]1(OC(C)=O)CO[C@@H]1C[C@@H]2O [Paclitaxel]; details: max 3 µM
Outline: as §1

[6] = compound: CC(=O)c1c(C)c2cnc(Nc3ccc(N4CCNCC4)cn3)nc2n(C2CCCC2)c1=O [Palbociclib]; details: max 10 µM
Outline: as §1

[7] = compound: CC(C)n1c(=O)n(C)c2cnc3cc(F)c(-c4ccc(OCCCN5CCCCC5)nc4)cc3c21 [AZD1390]; details: max 0.3 µM
Outline: as §1

[8] = compound: CC1(C)CCC(CN2CCN(c3ccc(C(=O)NS(=O)(=O)c4ccc(NCC5CCOCC5)c([N+](=O)[O-])c4)c(Oc4cnc5[nH]ccc5c4)c3)CC2)=C(c2ccc(Cl)cc2)C1 [Venetoclax]; details: max 1 µM
Outline: as §1

[9] = compound: CC1=C(C(=CC=C1)Cl)NC(=O)C2=CN=C(S2)NC3=CC(=NC(=N3)C)N4CCN(CC4)CCO [Dasatinib]; details: max 2 µM
Outline: as §1

[10] = compound: CCN(CCO)CCCOc1ccc2c(Nc3cc(CC(=O)Nc4cccc(F)c4)[nH]n3)ncnc2c1 [AZD2811]; details: max 1 µM
Outline: as §1

[11] = compound: CCc1c2c(nc3ccc(O)cc13)-c1cc3c(c(=O)n1C2)COC(=O)[C@]3(O)CC [SN-38]; details: max 0.3 µM
Outline: as §1

[12] = compound: CN(C)CCCOc1ccc(-c2ccc3ncc4c(c3c2)n(C2CCOCC2)c(=O)n4C)cn1 [AZD0156]; details: max 3 µM
Outline: as §1

[13] = compound: CN(CC[C@H](CSC1=CC=CC=C1)NC2=C(C=C(C=C2)S(=O)(=O)NC(=O)C3=CC=C(C=C3)N4CCC(CC4)[C@H](C5=CC=CC=C5C6=CC=C(C=C6)Cl)O)S(=O)(=O)C(F)(F)F)CCO [AZD4320]; details: max 1 µM
Outline: as §1

[14] = compound: COc1cc([C@@H]2c3cc4c(cc3[C@@H](O[C@@H]3O[C@@H]5CO[C@@H](C)O[C@H]5[C@H](O)[C@H]3O)[C@H]3COC(=O)[C@H]23)OCO4)cc(OC)c1O [Etoposide]; details: max 10 µM
Outline: as §1

[15] = compound: COc1cc2ncnc(Nc3ccc(F)c(Cl)c3)c2cc1OCCCN1CCOCC1 [Gefitinib]; details: max 10 µM
Outline: as §1

[16] = compound: COc1nnc2ccc(N3CCC(c4ccc(OCCN5CCN(C)C(=O)[C@H]5C)cc4)CC3)nn12 [AZD5153]; details: max 1 µM
Outline: as §1

[17] = compound: CS(=O)(=O)CCNCc1ccc(-c2ccc3ncnc(Nc4ccc(OCc5cccc(F)c5)c(Cl)c4)c3c2)o1 [Lapatinib]; details: max 10 µM
Outline: as §1

[18] = compound: C[C@@H](Nc1cc(F)cc(F)c1)c1cc(C(=O)N(C)C)cc2c(=O)cc(N3CCOCC3)oc12 [AZD8186]
Outline: as §1

[19] = compound: C[C@@H](Oc1cc(-c2cnn(C3CCNCC3)c2)cnc1N)c1c(Cl)ccc(F)c1Cl [Crizotinib]; details: max 10 µM
Outline: as §1

[20] = compound: C[C@@H](c1ccc2nccn2c1)n1nnc2ncc(-c3cnn(C)c3)nc21 [Savolitinib]; details: max 1 µM
Outline: as §1

[21] = compound: C[C@@H]1COCCN1C2=NC(=NC(=C2)C3(CC3)[S@](=N)(=O)C)C4=C5C=CNC5=NC=C4 [AZD6738]; details: max 10 µM
Outline: as §1

[22] = compound: Cc1c2c(nn1C)CSCc1cc(n(C)n1)CSc1cc(c3ccccc3c1)OCCCc1c(C(=O)O)n(C)c3c-2c(Cl)ccc13 [AZD5991]; details: max 1 µM
Outline: as §1

[23] = compound: Cc1cc2ncnn2cc1Nc1ncc2c(n1)n(C1CCOCC1)c(=O)n2C [AZD7648]; details: max 10 µM
Outline: as §1

[24] = compound: Cc1nc(-c2cn3c(n2)-c2ccc(-c4cnn(C(C)(C)C(N)=O)c4)cc2OCC3)n(C(C)C)n1 [Taselisib]; details: max 10 µM
Outline: as §1

[25] = compound: Cn1cnc2c(F)c(Nc3ccc(Br)cc3Cl)c(C(=O)NOCCO)cc21 [Selumetinib]; details: max 10 µM
Outline: as §1

[26] = compound: N#Cc1cnc(Nc2cc(NC[C@H]3CNCCO3)c(C(F)(F)F)cn2)cn1 [SRA737]; details: max 10 µM
Outline: as §1

[27] = compound: NC1(c2ccc(-c3nc4ccn5c(=O)[nH]nc5c4cc3-c3ccccc3)cc2)CCC1 [MK-2206]; details: max 10 µM
Outline: as §1

[28] = compound: Nc1ccn([C@@H]2O[C@H](CO)[C@@H](O)C2(F)F)c(=O)n1 [Gemcitabine]; details: max 0.3 µM
Outline: as §1

[29] = compound: O=C(Nc1ccc2[nH]nc(-c3ccncc3)c2c1)[C@@H]1CCN(CC(=O)N2CCN(c3ccc(-c4ncccn4)cc3)CC2)C1; details: max 5 µM
Outline: as §1

[30] = compound: O=C(c1cc(Cc2n[nH]c(=O)c3ccccc23)ccc1F)N1CCN(C(=O)C2CC2)CC1 [Olaparib]; details: max 10 µM
Outline: as §1

[31] = compound: O=c1[nH]cc(F)c(=O)[nH]1 [5-Fluorouracil]; details: max 20 µM
Outline: as §1

[32] = compound: C1CN(CCC1(C(=O)N[C@@H](CCO)C2=CC=C(C=C2)Cl)N)C3=NC=NC4=C3C=CN4 [Capivasertib]; details: max 10 µM
Outline: as §1

[33] = compound: CC1=CN2[C@@H](C1)C=NC3=CC(=C(C=C3C2=O)OC)OCCCCCOC4=C(C=C5C(=C4)N=C[C@@H]6CC(=CN6C5=O)C)OC [SG3199]; details: max 0.001 µM
Outline: as §1

[34] = compound: COc1cc(Nc2ncc3c(n2)-c2ccc(Cl)cc2C(c2c(F)cccc2OC)=NC3)ccc1C(=O)O [Alisertib]; details: max 10 µM
Outline: as §1

[35] = compound: COc1cccc(OCCCN)c1-c1cc(Nc2cnc(C#N)cn2)n[nH]1 [Prexasertib]; details: max 1 µM
Outline: as §1

[36] = compound: COc1cccc2c1C(=O)c1c(O)c3c(c(O)c1C2=O)C[C@@](O)(C(=O)CO)C[C@@H]3O[C@H]1C[C@H](N)[C@H](O)[C@H](C)O1 [Doxorubicin]; details: max 1 µM
Outline: as §1

Cell Line	IC50, cell viability 72 h [1] [nM]	IC50, cell viability 72 h [2] [nM]	IC50, cell viability 72 h [3] [nM]	IC50, cell viability 72 h [4] [nM]	IC50, cell viability 72 h [5] [nM]	IC50, cell viability 72 h [6] [nM]	IC50, cell viability 72 h [7] [nM]	IC50, cell viability 72 h [8] [nM]	IC50, cell viability 72 h [9] [nM]	IC50, cell viability 72 h [10] [nM]	IC50, cell viability 72 h [11] [nM]	IC50, cell viability 72 h [12] [nM]	IC50, cell viability 72 h [13] [nM]	IC50, cell viability 72 h [14] [nM]	IC50, cell viability 72 h [15] [nM]	IC50, cell viability 72 h [16] [nM]	IC50, cell viability 72 h [17] [nM]	IC50, cell viability 72 h ([18]; max 10 µM) [nM]	IC50, cell viability 72 h [19] [nM]	IC50, cell viability 72 h [20] [nM]	IC50, cell viability 72 h [21] [nM]	IC50, cell viability 72 h [22] [nM]	IC50, cell viability 72 h [23] [nM]	IC50, cell viability 72 h [24] [nM]	IC50, cell viability 72 h [25] [nM]	IC50, cell viability 72 h [26] [nM]	IC50, cell viability 72 h [27] [nM]	IC50, cell viability 72 h [28] [nM]	IC50, cell viability 72 h [29] [nM]	IC50, cell viability 72 h [30] [nM]	IC50, cell viability 72 h [31] [nM]	IC50, cell viability 72 h [32] [nM]	IC50, cell viability 72 h [33] [nM]	IC50, cell viability 72 h [34] [nM]	IC50, cell viability 72 h [35] [nM]	IC50, cell viability 72 h [36] [nM]	IC50, cell viability 72 h ([18]; max 3 µM) [nM]
HCC-44 (Lung Adenocarcinoma)	> 10000	9960	934	236	13.6	> 10000	> 300	> 1000	705	> 1000	177	> 3000	> 1000	> 10000	> 10000	290	> 10000	> 10000	8920	> 1000	> 10000	> 1000	> 10000	2240	> 10000	> 10000	> 10000	225	2800	> 10000	> 20000						
HuO-3N1 (Osteosarcoma)			> 3000	> 1000		> 10000	> 300	> 1000	305	> 1000	275	> 3000	> 1000		> 10000	> 1000	> 10000		> 10000	> 1000	> 10000	613	> 10000	6880	> 10000		> 10000			> 10000		> 10000	> 1	> 10000	529	616	> 3000
RL95-2 (Endometrial Carcinoma)			490	540		> 10000	> 300	> 1000	> 2000	305	> 300	> 3000	> 1000		> 10000	> 1000	> 10000		> 10000	> 1000	8390	266	> 10000	> 10000	9130					> 10000		1400	> 1	2140	93.8	> 1000	> 3000
RPMI-8866 (Chronic Myelogenous Leukemia)			349	> 1000		2710	> 300	> 1000	1130	449	4.48	> 3000	362		> 10000	47.6	> 10000		5730	> 1000	926	> 1000	> 10000	2450	> 10000					> 10000		> 10000	> 1	153	10	125	> 3000
RT4 (Bladder Carcinoma)			2260	328		> 10000	> 300	> 1000	> 2000	> 1000	43.4	> 3000	> 1000		> 10000	840	> 10000		> 10000	> 1000	> 10000	> 1000	> 10000	> 10000	> 10000					> 10000		> 10000	> 1	2400	> 1000	642	> 3000
SJRH30 (Rhabdomyosarcoma)			317	> 1000		> 10000	> 300	> 1000	> 2000	> 1000	> 300	> 3000	> 1000		> 10000	> 1000	> 10000		5220	> 1000	3800	980	> 10000	1470	> 10000		> 10000			> 10000		4700	> 1	9410	15.9	967	> 3000
SNU-175 (Colorectal Carcinoma)			365	547		8340	> 300	> 1000	> 2000	65.6	208	> 3000	> 1000		9290	236	> 10000		4580	> 1000	> 10000	> 1000	> 10000	> 10000	> 10000					> 10000		> 10000	> 1	377	761	502	> 3000
